From US20090311217A1, “3-SUBSTITUTED-1H-INDOLE COMPOUNDS, THEIR USE AS MTOR KINASE AND PI3 KINASE INHIBITORS, AND THEIR SYNTHESES” (priority 2008, published 2009) come the findings set out here.

Common to all, as to format: biochemical
The target in test [1] is PI3K-alpha (Homo sapiens, UniProt P42336). Nature of the test: PI3K-alpha fluorescence polarization assay.
For test [2], the target named is PI3K-gamma (Homo sapiens, UniProt P48736). Briefly: PI3K-gamma fluorescence polarization assay. Particulars: PI3Kγ Avg. IC50. Summed up: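 Reactions used 5 ng enzyme with 2.5 μM diC8-PI(4,5)P2 and 25 μM ATP in 5 mM HEPES pH 7, 2.5 mM MgCl2, run 1 h at 25° C. After an EDTA quench (10 mM), 100 nM GST-GRP1 PH domain and 5 nM BODIPY-TMR-IP4 were added and fluorescence polarization was read.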
Chain of PI3K-gamma (P48736 whole entry, species assumed, the tested form may be a part): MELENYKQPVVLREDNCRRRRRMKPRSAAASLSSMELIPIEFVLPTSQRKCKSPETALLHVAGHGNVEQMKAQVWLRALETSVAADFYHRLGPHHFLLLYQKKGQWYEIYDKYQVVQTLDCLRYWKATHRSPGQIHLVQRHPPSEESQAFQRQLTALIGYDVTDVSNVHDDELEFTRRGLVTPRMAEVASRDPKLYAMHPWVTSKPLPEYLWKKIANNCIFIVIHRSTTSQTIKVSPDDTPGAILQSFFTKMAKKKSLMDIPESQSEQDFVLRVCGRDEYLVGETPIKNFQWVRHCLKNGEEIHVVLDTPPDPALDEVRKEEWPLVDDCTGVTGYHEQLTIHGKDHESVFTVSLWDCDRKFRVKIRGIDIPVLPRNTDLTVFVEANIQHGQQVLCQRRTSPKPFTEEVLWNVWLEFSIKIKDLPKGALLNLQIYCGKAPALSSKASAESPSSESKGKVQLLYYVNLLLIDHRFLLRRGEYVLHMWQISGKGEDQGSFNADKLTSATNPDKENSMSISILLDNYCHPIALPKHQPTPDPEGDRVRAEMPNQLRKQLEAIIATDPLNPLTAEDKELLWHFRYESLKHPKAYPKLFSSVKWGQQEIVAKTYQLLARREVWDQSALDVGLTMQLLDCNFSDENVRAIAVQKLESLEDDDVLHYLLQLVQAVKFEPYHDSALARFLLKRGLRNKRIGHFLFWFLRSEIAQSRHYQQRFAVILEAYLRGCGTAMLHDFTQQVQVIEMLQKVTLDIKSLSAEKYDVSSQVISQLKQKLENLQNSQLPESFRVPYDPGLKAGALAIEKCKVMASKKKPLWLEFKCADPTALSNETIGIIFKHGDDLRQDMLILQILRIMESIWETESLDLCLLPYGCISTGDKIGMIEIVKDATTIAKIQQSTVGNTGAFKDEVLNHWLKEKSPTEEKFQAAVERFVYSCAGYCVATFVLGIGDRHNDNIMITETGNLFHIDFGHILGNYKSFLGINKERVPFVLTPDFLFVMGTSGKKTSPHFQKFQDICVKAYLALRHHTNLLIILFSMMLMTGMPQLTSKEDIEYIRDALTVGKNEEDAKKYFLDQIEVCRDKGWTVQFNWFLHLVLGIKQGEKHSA
(In general: In fluorescence polarisation assays a small probe gives low polarisation when free and higher when bound to something large.)

The target in test [3] is T1, human TOR (Homo sapiens, UniProt P42345).
T1 construct: FLAG
Briefly: mTOR enzyme assay (DELFIA, His6-S6K substrate). Particulars: read-out: mTOR Kinase Avg. IC50.

Molecules are shown by their SMILES. Read-outs that look alike come from different tables or passages of the source.

Chain of PI3K-alpha (P42336 whole entry, species assumed, the tested form may be a part): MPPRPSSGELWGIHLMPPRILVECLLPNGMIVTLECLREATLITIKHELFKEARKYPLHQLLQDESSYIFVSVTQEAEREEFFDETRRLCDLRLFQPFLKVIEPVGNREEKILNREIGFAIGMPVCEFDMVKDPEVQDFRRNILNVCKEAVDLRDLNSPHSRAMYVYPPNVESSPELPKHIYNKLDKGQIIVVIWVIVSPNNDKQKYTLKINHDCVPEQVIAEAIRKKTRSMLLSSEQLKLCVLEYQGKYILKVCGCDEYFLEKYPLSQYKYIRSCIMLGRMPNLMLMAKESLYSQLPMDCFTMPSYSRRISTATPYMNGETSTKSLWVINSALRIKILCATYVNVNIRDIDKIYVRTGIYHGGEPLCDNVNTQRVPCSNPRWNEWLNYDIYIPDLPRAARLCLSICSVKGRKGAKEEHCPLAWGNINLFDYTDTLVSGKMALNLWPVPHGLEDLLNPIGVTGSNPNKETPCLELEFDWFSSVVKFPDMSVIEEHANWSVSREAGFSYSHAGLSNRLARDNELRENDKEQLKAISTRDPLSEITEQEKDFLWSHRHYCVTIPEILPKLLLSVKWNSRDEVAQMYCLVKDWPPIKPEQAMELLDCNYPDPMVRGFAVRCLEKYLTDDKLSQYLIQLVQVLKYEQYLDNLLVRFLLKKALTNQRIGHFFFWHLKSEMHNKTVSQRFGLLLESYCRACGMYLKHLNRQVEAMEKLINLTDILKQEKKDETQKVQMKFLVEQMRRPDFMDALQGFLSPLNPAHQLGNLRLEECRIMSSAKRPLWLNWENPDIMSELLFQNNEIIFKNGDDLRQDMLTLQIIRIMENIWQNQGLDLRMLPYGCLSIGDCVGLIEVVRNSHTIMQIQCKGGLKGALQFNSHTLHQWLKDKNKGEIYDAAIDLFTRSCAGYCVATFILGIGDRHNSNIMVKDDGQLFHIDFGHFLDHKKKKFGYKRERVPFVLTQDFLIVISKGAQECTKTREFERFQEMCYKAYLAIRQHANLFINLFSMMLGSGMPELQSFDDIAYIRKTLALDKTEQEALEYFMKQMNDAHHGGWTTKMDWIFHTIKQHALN
Chain of PI3K-alpha (P27986 whole entry partner, species assumed, the tested form may be a part): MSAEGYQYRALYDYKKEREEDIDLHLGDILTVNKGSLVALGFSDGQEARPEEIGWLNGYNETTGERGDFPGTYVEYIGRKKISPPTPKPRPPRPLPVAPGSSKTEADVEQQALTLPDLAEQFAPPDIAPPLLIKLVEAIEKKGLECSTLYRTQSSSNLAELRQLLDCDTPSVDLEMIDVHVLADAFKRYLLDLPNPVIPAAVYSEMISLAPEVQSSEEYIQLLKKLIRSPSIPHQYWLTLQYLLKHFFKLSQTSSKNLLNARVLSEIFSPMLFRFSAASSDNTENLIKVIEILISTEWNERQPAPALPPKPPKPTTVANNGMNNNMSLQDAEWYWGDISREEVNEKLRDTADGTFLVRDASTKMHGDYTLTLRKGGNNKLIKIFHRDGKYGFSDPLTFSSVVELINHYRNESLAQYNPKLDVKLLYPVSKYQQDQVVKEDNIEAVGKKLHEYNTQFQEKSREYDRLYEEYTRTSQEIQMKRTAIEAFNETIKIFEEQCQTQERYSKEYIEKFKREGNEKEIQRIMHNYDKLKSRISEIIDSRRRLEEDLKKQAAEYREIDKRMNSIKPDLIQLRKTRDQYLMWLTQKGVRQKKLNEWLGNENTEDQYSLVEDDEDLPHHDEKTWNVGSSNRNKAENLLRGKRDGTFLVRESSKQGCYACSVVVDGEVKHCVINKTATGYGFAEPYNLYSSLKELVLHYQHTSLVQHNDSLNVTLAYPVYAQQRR

Regarding `CCn1c(C)c(/C=C2\Oc3ccc(NC(=O)Nc4ccc(NC(=O)CCN(C)C)cc4)cc3C2=O)c2cc(OC)ccc21` [Compound 676, N-{4-[({(2Z)-2-[(1-ethyl-5-methoxy-2-methyl-1H-indol-3-yl)methylidene]-3-oxo-2,3-dihydro-1-benzofuran-5-yl}carbamoyl)amino]phenyl}-N3,N3-dimethyl-b-alaninamide], the results for the concentration for half-maximal inhibition (IC50) in test [1] (read-out: PI3Kα Avg. IC50), in test [2] and in test [3] were 0.0003 µM, 0.00325 µM and 0.007 µM, respectively.
The matching figures for `CNC(=O)Nc1ccc2c(c1)C(=O)/C(=C/c1c(-c3cccc(CN(C)C)c3)[nH]c3ccc(OC)cc13)O2` [Compound 629, 1-{(2Z)-2-[(2-{3-[(dimethylamino)methyl]phenyl}-5-methoxy-1H-indol-3-yl)methylidene]-3-oxo-2,3-dihydro-1-benzofuran-5-yl}-3-methylurea]: 0.0013 µM, 0.0255 µM and 0.05 µM.
For `CNC(=O)Nc1ccc2c(c1)C(=O)/C(=C/c1c(-c3cn(C)nc3C)[nH]c3ccc(OC)cc13)O2` [Compound 722, 1-[(2Z)-2-{[2-(1,3-dimethyl-1H-pyrazol-4-yl)-5-methoxy-1H-indol-3-yl]methylidene}-3-oxo-2,3-dihydro-1-benzofuran-5-yl]-3-methylurea] the same measures were 0.00125 µM, 0.005 µM and 0.002 µM.
With `CNC(=O)Nc1ccc2c(c1)C(=O)/C(=C/c1c(-c3c(C)nn(CCOC)c3C)[nH]c3ccc(OC)cc13)O2` [Compound 709, 1-[(2Z)-2-({5-methoxy-2-[1-(2-methoxyethyl)-3,5-dimethyl-1H-pyrazol-4-yl]-1H-indol-3-yl}methylidene)-3-oxo-2,3-dihydro-1-benzofuran-5-yl]-3-methylurea], the IC50 in test [1] (read-out: PI3Kα Avg. IC50) turned out to be 0.047 µM; in test [2], 0.248 µM; in test [3], 0.043 µM.
The matching figures for `CNC(=O)Nc1ccc2c(c1)C(=O)/C(=C/c1c(Br)[nH]c3ccc(OC)cc13)O2` [Compound 692, 1-{(2Z)-2-[(2-bromo-5-methoxy-1H-indol-3-yl)methylidene]-3-oxo-2,3-dihydro-1-benzofuran-5-yl}-3-methylurea]: 0.007 µM, 0.105 µM and 0.008 µM.
For `N#CCCCn1c(-c2cccnc2)c(C=C2Oc3cc(O)cc(O)c3C2=O)c2ccccc21` [Example 226, 4-{3-[(4,6-dihydroxy-3-oxo-1-benzofuran-2(3H)-ylidene)methyl]-2-pyridin-3-yl-1H-indol-1-yl}butanenitrile], the 50% inhibitory concentration (IC50) was 1.65 µM in test [1] (read-out: PI3Kα Avg. IC50), above 10 µM in test [2] and 0.67 µM in test [3].
`Cn1cc(/C=C2\Oc3cc(O)cc(O)c3C2=O)c2c(-c3ccc(C(N)=O)cc3)cccc21` [Example 377, 4-{3-[(Z)-(4,6-Dihydroxy-3-oxo-1-benzofuran-2(3H)-ylidene)methyl]-1-methyl-1H-indol-4-yl}benzamide]: the 50% inhibitory concentration (IC50) in test [1] (read-out: PI3Kα Avg. IC50) amounted to 0.496 µM; in test [2], 4.07 µM; in test [3], 0.007 µM.
For `COc1ccc2c(c1)c(/C=C1\Oc3cc(O)c(C)cc3C1=O)c(C)n2CCN1CCN(C)CC1` [Example 458, (2Z)-6-Hydroxy-2-({5-methoxy-2-methyl-1-[2-(4-methylpiperazin-1-yl)ethyl]-1H-indol-3-yl}methylene)-5-methyl-1-benzofuran-3(2H)-one] the same measures were 0.135 µM, 4.35 µM and above 20 µM.
For `CN(C)Cc1ccc(-c2ccc(-c3cccc4c3c(/C=C3\Oc5cc(O)cc(O)c5C3=O)cn4C)cc2)cc1` [Example 301, (2Z)-2-[(4-{4′-[(Dimethylamino)methyl]biphenyl-4-yl}-1-methyl-1H-indol-3-yl)methylene]-4,6-dihydroxy-1-benzofuran-3(2H)-one] the same measures were 1.23 µM, 2.31 µM and 0.125 µM.
For `CN1CCN(CCn2cc(/C=C3\Oc4cc(O)cc(O)c4C3=O)c3c(-c4ccc(N(C)C)cc4)cccc32)CC1` [Example 438, (2Z)-2-({4-[4-(Dimethylamino)phenyl]-1-[2-(4-methylpiperazin-1-yl)ethyl]-1H-indol-3-yl}methylene)-4,6-dihydroxy-1-benzofuran-3(2H)-one] the same measures were 2.98 µM, 9 µM and above 20 µM.
Consider `CNC(=O)Nc1ccc2c(c1)C(=O)/C(=C/c1c(-c3c(C)nn(C)c3C)n(CCN(C)C)c3ccc(OC)cc13)O2` [Compound 673, 1-[(2Z)-2-({1-[2-(dimethylamino)ethyl]-5-methoxy-2-(1,3,5-trimethyl-1H-pyrazol-4-yl)-1H-indol-3-yl}methylidene)-3-oxo-2,3-dihydro-1-benzofuran-5-yl]-3-methylurea], for which the IC50 in test [1] (read-out: PI3Kα Avg. IC50) is 0.0125 µM; in test [2], 0.0615 µM; in test [3], 0.06 µM.
For `COc1ccc2c(c1)c(/C=C1\Oc3cc(O)cc(F)c3C1=O)c(C)n2CCCN(C)C` [Example 465, (2Z)-2-({1-[3-(Dimethylamino)propyl]-5-methoxy-2-methyl-1H-indol-3-yl}methylene)-4-fluoro-6-hydroxy-1-benzofuran-3(2H)-one] the same measures were 0.0295 µM, 0.475 µM and above 20 µM.
The matching figures for `COC(=O)Nc1ccc(-c2cccc3c2c(/C=C2\Oc4cc(O)cc(O)c4C2=O)cn3C)cc1` [Example 391, Methyl (4-{3-[(Z)-(4,6-Dihydroxy-3-oxo-1-benzofuran-2(3H)-ylidene)methyl]-1-methyl-1H-indol-4-yl}phenyl)carbamate]: 1.15 µM, 2.39 µM and 0.0385 µM.
For `O=C1/C(=C/c2c(-c3ccc(Cl)cc3)[nH]c3ccccc23)Oc2cc(O)cc(O)c21` [Example 44, (2Z)-2-{[2-(4-chlorophenyl)-1H-indol-3-yl]methylene}-4,6-dihydroxy-1-benzofuran-3(2H)-one], the 50% inhibitory concentration (IC50) in test [1] (PI3Kα Avg. IC50) was found to be 0.542 µM; in test [2], 1.46 µM; in test [3], 0.19 µM.
With `CNC(=O)Nc1ccc2c(c1)C(=O)/C(=C/c1c(-c3c(C)nn(C)c3C)n(CCN3CCN(C)CC3)c3ccc(OC)cc13)O2` [Compound 646, 1-[(2Z)-2-({5-methoxy-1-[2-(4-methylpiperazin-1-yl)ethyl]-2-(1,3,5-trimethyl-1H-pyrazol-4-yl)-1H-indol-3-yl}methylene)-3-oxo-2,3-dihydro-1-benzofuran-5-yl]-3-methylurea], the values for the IC50 in test [1] (read-out: PI3Kα Avg. IC50), in test [2] and in test [3] were 0.0025 µM, 0.068 µM and 0.013 µM, respectively.
The matching figures for `CNC(=O)Nc1ccc2c(c1)C(=O)/C(=C/c1c(-c3c(C)nn(C)c3C)[nH]c3c(F)cc(OC)cc13)O2` [Compound 693, 1-[(2Z)-2-{[7-fluoro-5-methoxy-2-(1,3,5-trimethyl-1H-pyrazol-4-yl)-1H-indol-3-yl]methylidene}-3-oxo-2,3-dihydro-1-benzofuran-5-yl]-3-methylurea]: 0.00075 µM, 0.00507 µM and below 0.001 µM.
For `CN1CCN(CCn2cc(/C=C3\Oc4cc(O)cc(O)c4C3=O)c3c(-c4ccc(C(N)=O)cc4)cccc32)CC1` [Example 425, 4-{3-[(Z)-(4,6-Dihydroxy-3-oxo-1-benzofuran-2(3H)-ylidene)methyl]-1-[2-(4-methylpiperazin-1-yl)ethyl]-1H-indol-4-yl}benzamide] the same measures were 5.04 µM, 8.65 µM and above 20 µM.
`COc1ccc2c(c1)c(/C=C1\Oc3cc(O)cc(O)c3C1=O)c(C(=O)N(C)C)n2CCn1ccnc1` [Example 314, 3-[(Z)-(4,6-Dihydroxy-3-oxo-1-benzofuran-2(3H)-ylidene)methyl]-1-[2-(1H-imidazol-1-yl)ethyl]-5-methoxy-N,N-dimethyl-1H-indole-2-carboxamide]: the IC50 amounted to 0.029 µM in test [1] (read-out: PI3Kα Avg. IC50), 0.116 µM in test [2] and 0.155 µM in test [3].
For `CC(C)NC(=O)c1ccc(-c2cccc3c2c(/C=C2\Oc4cc(O)cc(O)c4C2=O)cn3C)cc1` [Example 395, 4-{3-[(Z)-(4,6-dihydroxy-3-oxo-1-benzofuran-2(3H)-ylidene)methyl]-1-methyl-1H-indol-4-yl}-N-isopropylbenzamide] the same measures were 0.582 µM, 3.89 µM and 0.095 µM.
For `O=C1/C(=C/c2c[nH]c3ccc(Br)cc23)Oc2c1ccc(O)c2O` [Example 58, (2Z)-2-[(5-bromo-1H-indol-3-yl)methylene]-6,7-dihydroxy-1-benzofuran-3(2H)-one] the same measures were 0.31 µM, 3.53 µM and 15 µM.
The matching figures for `CNC(=O)Nc1ccc2c(c1)C(=O)/C(=C/c1c(-c3c(C)nn(C)c3C)n(CCN3CCNCC3)c3ccc(OC)cc13)O2` [Compound 656, 1-[(2Z)-2-{[5-methoxy-1-(2-piperazin-1-ylethyl)-2-(1,3,5-trimethyl-1H-pyrazol-4-yl)-1H-indol-3-yl]methylene}-3-oxo-2,3-dihydro-1-benzofuran-5-yl]-3-methylurea]: 0.00095 µM, 0.052 µM and 0.035 µM.
As to `CNC(=O)Nc1ccc2c(c1)C(=O)/C(=C/c1c(-c3nn(C)cc3C(F)(F)F)[nH]c3ccc(OC)cc13)O2` [Compound 724, 1-[(2Z)-2-({5-methoxy-2-[1-methyl-4-(trifluoromethyl)-1H-pyrazol-3-yl]-1H-indol-3-yl}methylidene)-3-oxo-2,3-dihydro-1-benzofuran-5-yl]-3-methylurea], the IC50 in test [1] (read-out: PI3Kα Avg. IC50) is 0.0047 µM; in test [2], 0.0307 µM; in test [3], 0.02 µM.

A word on the IC50: it is the concentration that inhibits the measured activity by half.
